Reference: ChEMBL document CHEMBL3397003, “Synthesis of dansyl-labeled probe of thiophene analogue of annonaceous acetogenins for visualization of cell distribution and growth inhibitory activity toward human cancer cell lines” (2015)

Experiments:
Format in all cases: functional
NCI-H23 = experiment: Growth inhibition of human NCI-H23 cells after 48 hrs by sulforhodamine B colorimetric assay; settings: NCI-H23, 48 h
NCI-H522 = experiment: Growth inhibition of human NCI-H522 cells after 48 hrs by sulforhodamine B colorimetric assay; settings: NCI-H522, 48 h
A549 = experiment: Growth inhibition of human A549 cells after 48 hrs by sulforhodamine B colorimetric assay; settings: A549, 48 h, read-out: pGI50 (converted)
[1] = Growth inhibition of human DMS273 cells after 48 hrs by sulforhodamine B colorimetric assay; settings: DMS-273, 48 h
SK-OV-3 = experiment: Growth inhibition of human SKOV3 cells after 48 hrs by sulforhodamine B colorimetric assay; settings: SK-OV-3, 48 h, read-out: pGI50 (converted)
[2] = Growth inhibition of human RXF631L cells after 48 hrs by sulforhodamine B colorimetric assay; settings: RXF 631, 48 h, read-out: pGI50 (converted)
[3] = Growth inhibition of human HBC4 cells after 48 hrs by sulforhodamine B colorimetric assay; settings: HBC4, 48 h, read-out: pGI50 (converted)
MCF7 = experiment: Growth inhibition of human MCF7 cells after 48 hrs by sulforhodamine B colorimetric assay; settings: MCF7, 48 h
U-251 = experiment: Growth inhibition of human U251 cells after 48 hrs by sulforhodamine B colorimetric assay; settings: U-251, 48 h, read-out: pGI50 (converted)
SF-268 = experiment: Growth inhibition of human SF268 cells after 48 hrs by sulforhodamine B colorimetric assay; settings: SF-268, 48 h, read-out: pGI50 (converted)
[4] = Growth inhibition of human SF295 cells after 48 hrs by sulforhodamine B colorimetric assay; settings: SF-295, 48 h
[5] = Growth inhibition of human SF539 cells after 48 hrs by sulforhodamine B colorimetric assay; settings: SF-539, 48 h, read-out: pGI50 (converted)
[6] = Growth inhibition of human SNB78 cells after 48 hrs by sulforhodamine B colorimetric assay; settings: SNB-78, 48 h, read-out: pGI50 (converted)
NCI-H226 = experiment: Growth inhibition of human NCI-H226 cells after 48 hrs by sulforhodamine B colorimetric assay; settings: NCI-H226, 48 h, read-out: pGI50 (converted)
NCI-H460 = experiment: Growth inhibition of human NCI-H460 cells after 48 hrs by sulforhodamine B colorimetric assay; settings: NCI-H460, 48 h, read-out: pGI50 (converted)
[7] = Growth inhibition of human DMS114 cells after 48 hrs by sulforhodamine B colorimetric assay; settings: DMS-114, 48 h
[8] = Growth inhibition of human LOXIMVI cells after 48 hrs by sulforhodamine B colorimetric assay; settings: LOX IMVI
[9] = Growth inhibition of human OVCAR3 cells after 48 hrs by sulforhodamine B colorimetric assay; settings: OVCAR-3, 48 h, read-out: pGI50 (converted)
[10] = Growth inhibition of human OVCAR4 cells after 48 hrs by sulforhodamine B colorimetric assay; settings: OVCAR-4, 48 h, read-out: pGI50 (converted)
[11] = Growth inhibition of human OVCAR5 cells after 48 hrs by sulforhodamine B colorimetric assay; settings: OVCAR-5, 48 h, read-out: pGI50 (converted)
[12] = Growth inhibition of human OVCAR8 cells after 48 hrs by sulforhodamine B colorimetric assay; settings: OVCAR-8, 48 h, read-out: pGI50 (converted)
ACHN = experiment: Growth inhibition of human ACHN cells after 48 hrs by sulforhodamine B colorimetric assay; settings: read-out: pGI50 (converted)
St-4 = experiment: Growth inhibition of human St-4 cells after 48 hrs by sulforhodamine B colorimetric assay; settings: St-4, 48 h, read-out: pGI50 (converted)
[13] = Growth inhibition of human MKN1 cells after 48 hrs by sulforhodamine B colorimetric assay; settings: MKN-1, 48 h, read-out: pGI50 (converted)
[14] = Growth inhibition of human MKN7 cells after 48 hrs by sulforhodamine B colorimetric assay; settings: MKN-7, 48 h
[15] = Growth inhibition of human MKN28 cells after 48 hrs by sulforhodamine B colorimetric assay; settings: MKN-28, 48 h
[16] = Growth inhibition of human MKN45 cells after 48 hrs by sulforhodamine B colorimetric assay; settings: MKN-45, 48 h, read-out: pGI50 (converted)
[17] = Growth inhibition of human MKN74 cells after 48 hrs by sulforhodamine B colorimetric assay; settings: MKN-74, 48 h
DU-145 = experiment: Growth inhibition of human DU145 cells after 48 hrs by sulforhodamine B colorimetric assay; settings: DU-145, 48 h, read-out: pGI50 (converted)
[18] = Growth inhibition of human PC3 cells after 48 hrs by sulforhodamine B colorimetric assay; settings: PC-3, 48 h, read-out: pGI50 (converted)
[19] = Growth inhibition of human BSY1 cells after 48 hrs by sulforhodamine B colorimetric assay; settings: BSY-1, 48 h
[20] = Growth inhibition of human HBC5 cells after 48 hrs by sulforhodamine B colorimetric assay; settings: HBC5, 48 h
MDA-MB-231 = experiment: Growth inhibition of human MDA-MB-231 cells after 48 hrs by sulforhodamine B colorimetric assay; settings: MDA-MB-231, 48 h, read-out: pGI50 (converted)
SNB-75 = experiment: Growth inhibition of human SNB75 cells after 48 hrs by sulforhodamine B colorimetric assay; settings: SNB-75, 48 h, read-out: pGI50 (converted)
[21] = Growth inhibition of human HCC2998 cells after 48 hrs by sulforhodamine B colorimetric assay; settings: HCC 2998, 48 h, read-out: pGI50 (converted)
KM12 = experiment: Growth inhibition of human KM12 cells after 48 hrs by sulforhodamine B colorimetric assay; settings: KM12, 48 h, read-out: pGI50 (converted)
HT-29 = experiment: Growth inhibition of human HT-29 cells after 48 hrs by sulforhodamine B colorimetric assay; settings: HT-29, 48 h, read-out: pGI50 (converted)
[22] = Growth inhibition of human HCT15 cells after 48 hrs by sulforhodamine B colorimetric assay; settings: HCT-15, 48 h, read-out: pGI50 (converted)
[23] = Growth inhibition of human HCT116 cells after 48 hrs by sulforhodamine B colorimetric assay; settings: HCT-116, 48 h

CCCCCCCCCCCC[C@@H](O)[C@H]1CC[C@H]([C@H](O)CCCCCCCCCCNC(=O)c2ccsc2)O1
GI50 (NCI-H23): 0.2 µM | GI50 (NCI-H522): 1 µM | GI50 (A549): > 100 µM | GI50 [1]: 2000 nM | GI50 (SK-OV-3): > 100 µM | GI50 [2]: > 100 µM | GI50 [3]: > 100 µM | GI50 (MCF7): 2000 nM | GI50 (U-251): > 100 µM | GI50 (SF-268): > 100 µM | GI50 [4]: 1 µM | GI50 [5]: > 100 µM | GI50 [6]: > 100 µM

CN(C)c1cccc2c(S(=O)(=O)NCCCCCCCCC[C@@H](O)[C@H]3CC[C@H]([C@H](O)CCCCCCCCCCNC(=O)c4ccsc4)O3)cccc12
GI50 (NCI-H23): 36.3 µM | GI50 (NCI-H226): > 100 µM | GI50 (NCI-H522): 25.7 µM | GI50 (NCI-H460): > 100 µM | GI50 (A549): > 100 µM | GI50 [1]: > 100000 nM | GI50 [7]: 30.2 nM | GI50 [8]: 676 nM | GI50 [9]: > 100 µM | GI50 [10]: > 100 µM | GI50 [11]: > 100 µM | GI50 [12]: > 100 µM | GI50 (SK-OV-3): > 100 µM | GI50 [2]: > 100 µM | GI50 (ACHN): > 100 µM | GI50 (St-4): > 100 µM | GI50 [13]: > 100 µM | GI50 [14]: 36.3 nM | GI50 [15]: 36.3 nM | GI50 [16]: > 100 µM | GI50 [17]: 33.1 µM | GI50 (DU-145): > 100 µM | GI50 [18]: > 100 µM | GI50 [3]: > 100 µM | GI50 [19]: 1200 nM | GI50 [20]: 363 nM | GI50 (MCF7): 2880 nM | GI50 (MDA-MB-231): > 100 µM | GI50 (U-251): > 100 µM | GI50 (SF-268): > 100 µM | GI50 [4]: 12.9 µM | GI50 [5]: > 100 µM | GI50 (SNB-75): > 100 µM | GI50 [6]: > 100 µM | GI50 [21]: > 100 µM | GI50 (KM12): > 100 µM | GI50 (HT-29): > 100 µM | GI50 [22]: > 100 µM | GI50 [23]: 302 nM
